Legend:
[1] = target: T1, Beta-2 adrenergic receptor (Homo sapiens, UniProt P07550); test: Binding affinity to the human beta-2 adrenergic receptor assayed using [125I]iodocyanopindolol as radioligand in CHO cells; assay type: cell-based
Target sequence in this assay (P07550 whole entry): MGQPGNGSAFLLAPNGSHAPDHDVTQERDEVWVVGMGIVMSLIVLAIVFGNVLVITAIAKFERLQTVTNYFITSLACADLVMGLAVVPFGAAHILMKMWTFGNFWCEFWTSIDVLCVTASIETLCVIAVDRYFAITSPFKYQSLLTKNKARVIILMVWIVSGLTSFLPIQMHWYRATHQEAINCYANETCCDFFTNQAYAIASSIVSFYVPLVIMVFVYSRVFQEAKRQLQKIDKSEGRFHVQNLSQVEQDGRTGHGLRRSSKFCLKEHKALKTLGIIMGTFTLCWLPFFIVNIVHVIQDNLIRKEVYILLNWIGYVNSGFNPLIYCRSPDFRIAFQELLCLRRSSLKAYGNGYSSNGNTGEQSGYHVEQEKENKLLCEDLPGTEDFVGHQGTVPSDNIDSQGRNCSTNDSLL

[2] = target: T2, Beta-3 adrenergic receptor (Homo sapiens, UniProt P13945); test: In vitro efficacy at human beta-3 adrenergic receptor.
Target sequence in this assay (P13945 whole entry): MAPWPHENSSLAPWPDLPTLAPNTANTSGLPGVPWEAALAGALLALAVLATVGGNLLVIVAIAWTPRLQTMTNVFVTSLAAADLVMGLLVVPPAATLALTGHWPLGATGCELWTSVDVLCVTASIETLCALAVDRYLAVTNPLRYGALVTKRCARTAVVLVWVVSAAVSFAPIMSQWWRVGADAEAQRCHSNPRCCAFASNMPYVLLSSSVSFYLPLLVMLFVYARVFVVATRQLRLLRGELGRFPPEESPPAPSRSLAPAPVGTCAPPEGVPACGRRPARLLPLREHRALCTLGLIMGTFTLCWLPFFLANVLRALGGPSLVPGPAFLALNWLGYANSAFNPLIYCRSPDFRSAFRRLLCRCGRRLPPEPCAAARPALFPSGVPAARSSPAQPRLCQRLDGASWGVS

[3] = target: T3, Beta-1 adrenergic receptor (Homo sapiens, UniProt P08588); test: Binding affinity for human Beta-1 adrenergic receptor using [125I]iodocyanopindolol as radioligand in CHO cells; assay type: cell-based
Target sequence in this assay (P08588 whole entry): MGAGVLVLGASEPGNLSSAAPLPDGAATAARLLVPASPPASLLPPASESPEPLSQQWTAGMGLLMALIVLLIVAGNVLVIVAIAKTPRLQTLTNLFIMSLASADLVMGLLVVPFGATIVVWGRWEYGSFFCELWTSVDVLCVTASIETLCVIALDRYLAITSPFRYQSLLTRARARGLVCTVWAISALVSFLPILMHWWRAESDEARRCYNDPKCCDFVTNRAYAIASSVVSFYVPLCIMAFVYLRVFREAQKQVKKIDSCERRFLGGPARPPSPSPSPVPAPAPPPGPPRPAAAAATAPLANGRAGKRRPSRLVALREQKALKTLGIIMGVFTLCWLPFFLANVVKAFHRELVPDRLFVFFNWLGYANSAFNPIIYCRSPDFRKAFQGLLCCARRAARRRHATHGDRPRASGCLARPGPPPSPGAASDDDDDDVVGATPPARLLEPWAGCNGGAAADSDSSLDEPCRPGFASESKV

[4] = target: T2, Beta-3 adrenergic receptor; test: In vitro maximum activation of adenylyl cyclase compared to isoproterenol.; assay type: functional
Target sequence in this assay (P13945 whole entry, looked up): as the sequence (P13945 whole entry) above

[5] = target: T3, Beta-1 adrenergic receptor; test: (§1) Percent of maximal stimulation was determined as adenylate cyclase activation using isoproterenol as standard at a concentration of 10000 nM; assay type: functional
Target sequence in this assay (P08588 whole entry, looked up): as the sequence (P08588 whole entry) above

[6] = target: T1, Beta-2 adrenergic receptor; test: as §1; assay type: functional
Target sequence in this assay (P07550 whole entry, looked up): as the sequence (P07550 whole entry) above

[7] = target: T3, Beta-1 adrenergic receptor; test: Binding affinity towards human Beta-1 adrenergic receptor
Target sequence in this assay (P08588 whole entry): as the sequence (P08588 whole entry) above

[8] = target: T2, Beta-3 adrenergic receptor; test: Percent of maximal stimulation was determined as adenylate cyclase activation using isoproterenol as standard at a concentration of 1000 nM; assay type: functional
Target sequence in this assay (P13945 whole entry, looked up): as the sequence (P13945 whole entry) above

[9] = target: T3, Beta-1 adrenergic receptor; test: Percent of maximal stimulation was determined as adenylate cyclase activation using isoproterenol as standard; assay type: functional
Target sequence in this assay (P08588 whole entry, looked up): as the sequence (P08588 whole entry) above

[10] = target: T1, Beta-2 adrenergic receptor; test: Percent of maximal stimulation was determined as adenylate cyclase activation using isoproterenol as standard at a concentration of 10000 nM
Target sequence in this assay (P07550 whole entry, looked up): as the sequence (P07550 whole entry) above

SMILES	IC50 [1] [nM]	EC50 [2] [nM]	IC50 [3] [nM]	Activation [4] [%]	further results
N#CN=C(Nc1ccc(CCNC[C@H](O)c2cccnc2)cc1)Nc1cccc2ccccc12	570	42	480		
N#CN/C(=N\c1cccc2c1CCN2c1nc(-c2ccc(OC(F)(F)F)cc2)cs1)Nc1ccc(CCNC[C@H](O)c2cccnc2)cc1	> 10000	57	8400	72	Activation [5]: 6%; Activation [6]: 20%
NC(=O)c1cccc(N/C(=C/[N+](=O)[O-])Nc2ccc(CCNC[C@H](O)c3cccnc3)cc2)c1	1200	10	790	101	
N#CN/C(=N\c1cccc2ccccc12)Nc1ccc(CCNC[C@H](O)c2cccnc2)cc1				64	
N#CN/C(=N\c1cc(Cl)cc(Cl)c1)Nc1ccc(CCNC[C@H](O)c2cccnc2)cc1	140	89	290	72	
N#CN/C(=N\c1cccc(Oc2ccccc2)c1)Nc1ccc(CCNC[C@H](O)c2cccnc2)cc1	40	26	240	70	
CCCCCCCCc1csc(N2CCc3c(N/C(=N/c4ccc(CCNC[C@H](O)c5cccnc5)cc4)NC#N)cccc32)n1	930	13	1200	62	Activation [5]: 11%; Activation [6]: 25%
O=[N+]([O-])/C=C(\Nc1ccc(CCNC[C@H](O)c2cccnc2)cc1)Nc1cccc(F)c1	2400	300	3000	79	
CCCCCCCCc1csc(N2CCc3cc(N/C(S)=N/c4ccc(CCNC[C@H](O)c5cccnc5)cc4)ccc32)n1	260	5.3	110		
O=[N+]([O-])/C=C(\Nc1ccc(CCNC[C@H](O)c2cccnc2)cc1)Nc1cccc(Oc2ccccc2)c1	220	120	830	93	
CCCCCCCCc1csc(N2CCc3ccc(N/C(=N/c4ccc(CCNC[C@H](O)c5cccnc5)cc4)NC#N)cc32)n1	66	59	74	38	
O=[N+]([O-])/C=C(\Nc1ccc(CCNC[C@H](O)c2cccnc2)cc1)Nc1ccc2ccccc2c1	3400	180	820	74	
N#CN=C(Nc1ccc2c(c1)CCN2c1nc(-c2ccc(OC(F)(F)F)cc2)cs1)Nc1ccc2cc(CCNC[C@H](O)c3cccnc3)ccc2c1	7100	19	2300		
O=[N+]([O-])/C=C(\Nc1ccc(CCNC[C@H](O)c2cccnc2)cc1)Nc1cccc2ccccc12	370	140	1800	79	
N#CN/C(=N\c1cccc(F)c1)Nc1ccc(CCNC[C@H](O)c2cccnc2)cc1				69	
CCCCCCCCc1csc(N2CCc3cc(S(=O)(=O)Nc4ccc(CCNC[C@H](O)c5cccnc5)cc4)ccc32)n1	1300	0.93	2500		

SMILES	IC50 [1] [nM]	EC50 [2] [nM]	IC50 [3] [nM]	Activation [4] [%]	further results
N#CN/C(=N\c1cccc(I)c1)Nc1ccc(CCNC[C@H](O)c2cccnc2)cc1				51	
N#CN/C(=N\c1ccc(I)cc1)Nc1ccc(CCNC[C@H](O)c2cccnc2)cc1	170	100	730	38	
N#CN=C(Nc1ccc(CCNC[C@H](O)c2cccnc2)cc1)Nc1ccc2c(c1)CCN2c1nc(-c2ccc(OC(F)(F)F)cc2)cs1	180	13	65		EC50 [7]: 41 nM
N#CN=C(Nc1ccc(CCNC[C@H](O)c2cccnc2)cc1)Nc1ccc2ccccc2c1	50	130	740		
N#CN/C(=N\c1ccc2ccccc2c1)Nc1ccc(CCNC[C@H](O)c2cccnc2)cc1				41	
N#CN/C(=N\c1ccc2c(c1)CCN2c1nc(-c2ccc(OC(F)(F)F)cc2)cs1)Nc1ccc2cc(CCNC[C@H](O)c3cccnc3)ccc2c1				62	Activation [5]: 2%; Activation [6]: 11%
N#CN=C(Nc1ccc(CCNC[C@H](O)c2cccnc2)cc1)Nc1cccc(F)c1	200	100	590		
N#CN=C(Nc1ccc(CCNC[C@H](O)c2cccnc2)cc1)Nc1cccc(I)c1	67	59	230		
O=[N+]([O-])/C=C(\Nc1ccc(CCNC[C@H](O)c2cccnc2)cc1)Nc1cc(Cl)cc(Cl)c1	5600	35	3800	85	
CCCCCCCCc1csc(N2CCc3cc(N/C(=N/c4ccc(CCNC[C@H](O)c5cccnc5)cc4)NC#N)ccc32)n1				39	
CCCCCCCCc1csc(N2CCc3cc(NC(=NC#N)Nc4ccc(CCNC[C@H](O)c5cccnc5)cc4)ccc32)n1	50	11	16		
N#CN/C(=N\c1ccc(CCNC[C@H](O)c2cccnc2)cc1)Nc1cccc(C(N)=O)c1	400	150	980	76	
O=[N+]([O-])/C=C(\Nc1ccc(CCNC[C@H](O)c2cccnc2)cc1)Nc1cccc(I)c1	1200	22	1100	97	
N#CN/C(=N\c1ccc2c(c1)N(c1nc(-c3ccc(OC(F)(F)F)cc3)cs1)CC2)Nc1ccc(CCNC[C@H](O)c2cccnc2)cc1	710		620		Activation [8]: 11%; Activation [5]: 27%; Activation [6]: 20%
N#CN/C(=N\c1ccc2c(c1)CCN2c1nc(-c2ccc(OC(F)(F)F)cc2)cs1)Nc1ccc(CCNC[C@H](O)c2cccnc2)cc1				82	Activation [9]: 73%; Activation [10]: 51%

Reference: ChEMBL document CHEMBL1134823, “Human beta3 adrenergic receptor agonists containing cyanoguanidine and nitroethylenediamine moieties” (Bioorg Med Chem Lett, 2001)
